PubChem BioAssay AID2060350 (Molecular Pharmacology Branch, DTP, NCI, 2025)
pIC50: −log10 of the molar value.

Tested on: PDC 521955-158-R6-J3 spheroids, viability
Test: Anticancer human tumor 521955-158-R6-J3-PDC patient-derived pancreatic carcinoma cell line growth inhibition [TAK]
Conditions: spheroids with HUVEC and MSC; for pIC50: curve of first compound; for viability, T/C: stronger effect = lower value
Procedure, shortened: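 Drug combinations, each paired with TAK-243 or ipatasertib, were tested on multi-cell spheroids of 60% malignant cells, 25% HUVEC and 15% hMSC. Top concentrations were at or near the clinical Cmax (10 microM if undetermined), decreasing by half-log; viability is given as % test/control.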

[1] = second compound 0.3 µM, first compound 0.0316 µM
[2] = second compound 0.3 µM, first compound 0.1 µM
[3] = second compound 0.3 µM, first compound 0.316 µM
[4] = second compound 0.3 µM, first compound 1 µM
[5] = second compound 0.949 µM, first compound 0.0316 µM
[6] = second compound 0.949 µM, first compound 0.1 µM
[7] = second compound 0.949 µM, first compound 0.316 µM
[8] = second compound 0.949 µM, first compound 1 µM
[9] = second compound 3 µM, first compound 0.0316 µM
[10] = second compound 3 µM, first compound 0.1 µM
[11] = second compound 3 µM, first compound 0.316 µM
[12] = second compound 3 µM, first compound 1 µM
[13] = second compound 9.49 µM, first compound 0.0316 µM
[14] = second compound 9.49 µM, first compound 0.1 µM
[15] = second compound 9.49 µM, first compound 0.316 µM
[16] = second compound 9.49 µM, first compound 1 µM
[17] = second compound 30 µM, first compound 0.0316 µM
[18] = second compound 30 µM, first compound 0.1 µM
[19] = second compound 30 µM, first compound 0.316 µM
[20] = second compound 30 µM, first compound 1 µM
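Note: spheroids exposed to drugs for 7 days before readout.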
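Throughout, for viability, T/C: 100% = DMSO vehicle control viability.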

Row | SMILES | pIC50 (second compound 0.3 µM) | pIC50 (second compound 0.949 µM) | pIC50 (second compound 3 µM) | pIC50 (second compound 9.49 µM) | pIC50 (second compound 30 µM) | viability, T/C [1] [%] | viability, T/C [2] [%] | viability, T/C [3] [%] | viability, T/C [4] [%] | viability, T/C [5] [%] | viability, T/C [6] [%] | viability, T/C [7] [%] | viability, T/C [8] [%] | viability, T/C [9] [%] | viability, T/C [10] [%] | viability, T/C [11] [%] | viability, T/C [12] [%] | viability, T/C [13] [%] | viability, T/C [14] [%] | viability, T/C [15] [%] | also measured
1 | COc1c(OCCCN2CCOCC2)ccc2c3n(c(=NC(=O)c4cnc(N)nc4)nc12)CCN3 + CC(C)NCC(C(=O)N1CCN(c2ncnc3c2C(C)CC3O)CC1)c1ccc(Cl)cc1 | 7.42 | 8.13 | > 8.50 | > 8.50 | > 8.50 | 51.2 | 41 | 27 | 21.6 | 44.9 | 37.4 | 25.9 | 20.2 | 37.8 | 32.9 | 25.7 | 19.5 | 35.8 | 29.9 | 22.8 | viability, T/C (second compound 0.3 µM, first compound 0.00316 µM): 70.9%; viability, T/C (second compound 0.3 µM, first compound 0.01 µM): 63.6%; viability, T/C (second compound 0.949 µM, first compound 0.00316 µM): 52.4%; viability, T/C (second compound 0.949 µM, first compound 0.01 µM): 48.2%; viability, T/C (second compound 3 µM, first compound 0.00316 µM): 46.8%; viability, T/C (second compound 3 µM, first compound 0.01 µM): 43.5%; viability, T/C (second compound 9.49 µM, first compound 0.00316 µM): 43.3%; viability, T/C (second compound 9.49 µM, first compound 0.01 µM): 37.5%; viability, T/C [16]: 19.8%; viability, T/C (second compound 30 µM, first compound 0.00316 µM): 41.1%; viability, T/C (second compound 30 µM, first compound 0.01 µM): 34.5%; viability, T/C [17]: 37%; viability, T/C [18]: 24.6%; viability, T/C [19]: 18%; viability, T/C [20]: 15.4%
2 | Cc1nc(NC(=O)N2CCCC2C(N)=O)sc1-c1ccnc(C(C)(C)C(F)(F)F)c1 (stereo not given) + CC(C)NCC(C(=O)N1CCN(c2ncnc3c2C(C)CC3O)CC1)c1ccc(Cl)cc1 | < 5.00 | 5.35 | 5.55 | 6.29 | 6.32 | 70.5 | 77 | 72.7 | 63.1 | 63.4 | 64 | 57.3 | 55.3 | 57.2 | 62.7 | 58.8 | 51.5 | 63 | 58.4 | 48.2 | viability, T/C (second compound 0.3 µM, first compound 3.16 µM): 66.4%; viability, T/C (second compound 0.3 µM, first compound 10 µM): 55.6%; viability, T/C (second compound 0.949 µM, first compound 3.16 µM): 54.3%; viability, T/C (second compound 0.949 µM, first compound 10 µM): 44.9%; viability, T/C (second compound 3 µM, first compound 3.16 µM): 51.2%; viability, T/C (second compound 3 µM, first compound 10 µM): 38.9%; viability, T/C [16]: 47.2%; viability, T/C (second compound 9.49 µM, first compound 3.16 µM): 46.9%; viability, T/C (second compound 9.49 µM, first compound 10 µM): 35.1%; viability, T/C [17]: 60%; viability, T/C [18]: 49.2%; viability, T/C [19]: 54.5%; viability, T/C [20]: 46.8%; viability, T/C (second compound 30 µM, first compound 3.16 µM): 38.9%; viability, T/C (second compound 30 µM, first compound 10 µM): 26.2%
